Here are results for ten compounds from patent EP0639573A1, “Benzocondensed five membered heterocycles, process of their preparation, their use as drug, as diagnostic means and pharmaceuticals containing it” (HOECHST AKTIENGESELLSCHAFT, priority 1993, dated 1995).

SMILES strings stand for the structures. Where a name gives a salt, the structure may show the parent alone.

T1 sequence (P23791 whole entry): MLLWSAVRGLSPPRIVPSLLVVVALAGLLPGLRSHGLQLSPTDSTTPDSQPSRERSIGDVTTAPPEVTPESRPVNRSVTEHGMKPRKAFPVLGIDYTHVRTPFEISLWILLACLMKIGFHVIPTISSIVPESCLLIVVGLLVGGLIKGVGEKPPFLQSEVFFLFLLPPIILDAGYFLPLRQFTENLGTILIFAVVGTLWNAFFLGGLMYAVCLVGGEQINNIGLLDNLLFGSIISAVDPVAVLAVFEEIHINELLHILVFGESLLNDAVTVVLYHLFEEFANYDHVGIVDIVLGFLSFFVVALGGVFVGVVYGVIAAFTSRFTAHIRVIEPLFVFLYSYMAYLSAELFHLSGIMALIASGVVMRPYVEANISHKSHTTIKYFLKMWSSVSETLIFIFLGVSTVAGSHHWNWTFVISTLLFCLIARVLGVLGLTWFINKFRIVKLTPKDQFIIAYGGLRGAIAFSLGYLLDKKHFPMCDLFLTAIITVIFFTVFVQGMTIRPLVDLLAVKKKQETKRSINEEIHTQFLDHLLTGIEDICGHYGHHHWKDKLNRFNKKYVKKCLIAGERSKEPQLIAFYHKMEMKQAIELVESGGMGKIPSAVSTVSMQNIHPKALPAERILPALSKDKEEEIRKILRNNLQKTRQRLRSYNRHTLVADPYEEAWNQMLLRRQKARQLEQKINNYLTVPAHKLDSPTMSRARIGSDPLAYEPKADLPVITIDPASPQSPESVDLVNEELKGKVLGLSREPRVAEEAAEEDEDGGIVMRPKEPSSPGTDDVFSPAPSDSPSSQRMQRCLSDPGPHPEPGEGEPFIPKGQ

One experiment concerns the target T1, Na⁺/H⁺-Exchanger (Oryctolagus cuniculus, UniProt P23791).
T1 construct: den Na⁺-Influx in die Erythrocyten via Na⁺/H⁺-Austausch flammenphotometrisch bestimmen zu können; from tissue; host or cells: Erythrocytes in whole blood from ear arteries of cholesterol-fed White New Zealand rabbits (Ivanovas)
In words: Inhibition of the Na+/H+ exchanger of rabbit erythrocytes (amiloride-sensitive Na+ influx, flame photometry). It is filed as cell-based, Kaninchen. As to conditions: Kaninchenerythrocyten; hyperosmolar salt-sucrose medium, pH 7,4, 37°C; rabbits on 2% cholesterol diet; read-out: IC₅₀. The source says: Inhibition des Na⁺/H⁺-Exchangers von Kaninchenerythrocyten
Weiße Neuseeland-Kaninchen (Ivanovas) erhielten eine Standard-Diät mit 2% Cholesterin für sechs Wochen, um den Na⁺/H⁺-Austausch zu aktivieren und so den Na⁺-Influx in die Erythrocyten via Na⁺/H⁺-Austausch flammenphotometrisch bestimmen zu können. Das Blut wurde den Ohrarterien entnommen und durch 25 IE Kalium-Heparin ungerinnbar gemacht. Ein Teil jeder Probe wurde zur Doppelbestimmung des Hämatokrits durch Zentrifugieren benutzt. Aliquots von jeweils 100 µl dienten zur Messung des Na⁺-Ausgangsgehalts der Erythrocyten.
Um den Amilorid-sensitiven Natrium-Influx zu bestimmen, wurden 100 µl jeder Blutprobe in jeweils 5 ml eines hyperosmolaren Salz-Sucrose-Mediums (mmol/l: 140 NaCl, 3 KCl, 150 Sucrose, 0,1 Ouabain, 20 Tris-hydroxymethylaminomethan) bei pH 7,4 und 37°C inkubiert. Die Erythrocyten wurden danach dreimal mit eiskalter MgCl₂-Ouabain-Lösung (mmol/l: 112 MgCl₂, 0,1 Ouabain) gewaschen und in 2,0 ml destilliertem Wasser hämolysiert. Der intrazelluläre Natriumgehalt wurde flammenphotometrisch bestimmt.
Der Na⁺ -Nettoinflux wurde aus der Differenz zwischen Natrium-Ausgangswerten und dem Natriumgehalt der Erythrocyten nach Inkubation errechnet. Der Amilorid-hemmbare Natrium-Influx ergab sich aus der Differenz des Natriumgehalts der Erythrocyten nach Inkubation mit und ohne Amilorid 3 x 10⁻⁴ mol/l. Auf diese Weise wurde auch bei den erfindungsgemäßen Verbindungen verfahren.
As for `CCCn1c(C(=O)N=C(N)N)cc2cc(Cl)ccc21` [Beispiel 53, 5-Chlor-1-propyl-2-indolylcarbonyl-guanidin-hydrochlorid], the IC50 worked out at 50 nM.

With `CCCCn1c(C(=O)N=C(N)N)cc2cc(Cl)ccc21` [Beispiel 54, 5-Chlor-1-butyl-2-indolylcarbonyl-guanidin-hydrochlorid], the IC50 was 200 nM.

For `CN1c2ccc(F)cc2CC1C(=O)N=C(N)N` (stereo not shown) [Beispiel 106, 5-Fluor-1-methylindolin-2-carbonsäureguanidid Hydrochlorid], the IC50 was found to be 50 nM.

On to `CN1c2ccccc2CC1C(=O)N=C(N)N` (stereo not shown) [Beispiel 104, 1-Methylindolin-2-carbonsäure-guanidid-hydrochlorid], for which the IC50 is 200 nM.

In the case of `NC(N)=NC(=O)c1cc2cc(Cl)ccc2n1Cc1ccncc1` [Beispiel 61, 5-Chlor-1-(4-picolyl)-2-indolylcarbonyl-guanidin-dihydrochlorid], the IC50 came to 300 nM.

With `Cn1c(C(=O)N=C(N)N)c(Cl)c2cc(Cl)ccc21` [Beispiel 69, 3,5-Dichlor-1-methyl-2-indolylcarbonyl-guanidin-hydrochlorid], the IC50 was determined as 50 nM.

Consider `CCn1c(C(=O)N=C(N)N)cc2cc(Cl)ccc21` [Beispiel 52, 5-Chlor-1-ethyl-2-indolylcarbonyl-guanidin-hydrochlorid], for which the IC50 came out at 40 nM.

Take `Cn1c(C(=O)N=C(N)N)c(Cl)c2cc(F)ccc21` [Beispiel 86, 3-Chlor-5-fluor-1-methylindolyl-2-carbonsäureguanidid Hydrochlorid]: the IC50 came out at 30 nM.

Another experiment concerns Rattenherzen.
Assay: not given
As to conditions: isolated rat hearts; Eur. Heart J. 9 (suppl. 1): 167 (1988); cited from earlier work.
With `NC(N)=NC(=O)c1nc(Cl)c(N)nc1N` [Amilorid], the “künstlich ausgelöstes Kammerflimmern” value was “völlig unterdrückt”.

Regarding `CCN(c1nc(N)c(C(=O)N=C(N)N)nc1Cl)C(C)C` [Ethylisopropylamilorid], the “künstlich ausgelöstes Kammerflimmern” value was “Noch potenter als Amilorid”.
